Values of other authors, collected in patent US8207181B2, “Substituted dihydro, trihydro and tetrahydro cycloalkyloxazolopyrimidinones, preparation and use thereof” (Sanofi, priority 2008, dated 2012).

Experiments:
[1] = test system: pentylenetetrazole- and picrotoxin-induced seizures
healthy human subjects = conditions: pretreatment
schizophrenia = conditions: compared to placebo
animal models = conditions: some animal models

In the case of `N[C@H](C(=O)O)c1ccc(C(=O)O)c(O)c1` [(S)-4-carboxy-3-hydroxyphenylglycine], the “protection against audiogenic seizures” value (DBA/2 mice) is listed as “protects against audiogenic seizures”.
In the case of `N[C@@]1(C(=O)O)CC[C@H]2[C@H](C(=O)O)[C@H]21` [LY354740], the “effect on chemically induced seizures” value [1] is listed as “attenuates pentylenetetrazole- and picrotoxin-induced seizures” and the “effect on ketamine disruption of working memory” value (healthy human subjects) is listed as “attenuation of the disruptive effects of the NMDA glutamate receptor antagonist, ketamine, on working memory”.
In the case of `N[C@@]1(C(=O)O)CO[C@H]2[C@H](C(=O)O)[C@H]21` [LY379268], the “effect on REM sleep and fast EEG” value (rat) is given as “suppresses rapid eye movement (REM) sleep and fast EEG”.
In the case of `CSCC[C@H](N)C(=O)N[C@@]1(C(=O)O)CS(=O)(=O)[C@H]2[C@H](C(=O)O)[C@H]21` [LY2140023], the “improvement in positive and negative symptoms of schizophrenia” value (schizophrenia) is listed as “statistically significant improvements in both positive and negative symptoms of schizophrenia”.
In the case of `N[C@]1(C(=O)O)[C@H]2[C@@H](C[C@H]1OCc1ccc(Cl)c(Cl)c1)[C@]2(F)C(=O)O` [MGS0039], the antidepressant-like effects (animal models) is given as “dose-dependent antidepressant-like effects”.
For `Cc1c(OCc2cccc(-c3ccc(C(=O)O)cc3)c2)cc2c(c1C)C(=O)C(C1CCCC1)C2` (stereo not shown) [biphenyl-indanone A], the “antipsychotic- and anxiolytic-like effects” value (mice) is given as “antipsychotic- and anxiolytic-like effects”.
